Earlier results in patent US12584131B2, “Methods of gene therapy” (OREGON HEALTH & SCIENCE UNIVERSITY, priority 2018, dated 2026).

Test system: CYP enzymes
Details: not given

SMILES	Metabolizing CYP
O=P1(N(CCCl)CCCl)NCCCO1 (stereo not drawn) [Cyclophosphamide]	CYP2B6, CYP2C9, CYP3A4
CC(=O)Nc1ccc(O)cc1 [Acetaminophen]	CYP2E1, CYP1A2, CYP3A4, CYP2D6

Same assay, conditions: CYP enzymes that activate the prodrug (protoxin)

SMILES	Metabolizing CYP
CN(C)/N=N/c1[nH]cnc1C(N)=O [Dascarbazine]	CYP1A1, CYP1A2, CYP2E1
COc1cccc(C2(O)CCCCC2CN(C)C)c1 (stereo not drawn) [Tramadol]	CYP2D6
O=c1[nH]c(=O)n(C2CCCO2)cc1F (stereo not drawn) [Tegafur]	CYP2A6, CYP1A2, CYP2C8
CC(=O)N1CCN(c2ccc(OCC3COC(Cn4ccnc4)(c4ccc(Cl)cc4Cl)O3)cc2)CC1 (stereo not drawn) [Ketoconazole]	CYP3A4
Nc1c2c(nc3ccccc13)CCCC2 [Tacrine]	CYP1A2
C/C=C1\C[C@@H](C)[C@@](C)(O)C(=O)OC/C2=C/CN(C)CC[C@@H](OC1=O)C2=O [Senkirkin]	CYP3A4

Same assay, conditions: listed as acetaminophen

SMILES	Metabolizing CYP
CC(=O)Nc1ccc(O)cc1 [Acetaminophen]	CYP1A2, CYP2E1, and CYP3A4
